One data set concerns Klebsiella pneumoniae. The data set is described as follows: Antibacterial activity against Klebsiella pneumoniae ATCC BAA-1705 incubated for 16 to 18 hrs by broth microdilution assay. The format is functional.
For data set [1], the system named is Staphylococcus aureus. As to the kind of experiment: Antibacterial activity against vancomycin-resistant Staphylococcus aureus VRS12 incubated for 16 to 18 hrs by broth microdilution assay. The format is functional.
Data set [2] relates to Staphylococcus aureus. As to the kind of experiment: Antibacterial activity against vancomycin-resistant Staphylococcus aureus VRS4 incubated for 16 to 18 hrs by broth microdilution assay. It counts as functional.
For data set [3], the system named is Staphylococcus aureus. The data set is described as follows: Antibacterial activity against vancomycin-resistant Staphylococcus aureus VRS1 incubated for 16 to 18 hrs by broth microdilution assay. It counts as functional.
For data set [4], the system named is Staphylococcus aureus. The data set is described as follows: Antibacterial activity against methicillin-resistant Staphylococcus aureus NR10194 incubated for 16 to 18 hrs by broth microdilution assay. The format is functional.
Data set [5] has as its system Staphylococcus aureus. As to the kind of experiment: Antibacterial activity against methicillin-resistant Staphylococcus aureus NR10191 incubated for 16 to 18 hrs by broth microdilution assay. The format is functional.
For data set [6], the system named is Staphylococcus aureus. The data set is described as follows: Antibacterial activity against methicillin-resistant Staphylococcus aureus NR10193 incubated for 16 to 18 hrs by broth microdilution assay. The format is functional.
Data set [7] relates to Staphylococcus aureus. As to the kind of experiment: Antibacterial activity against methicillin-resistant Staphylococcus aureus NR10186 incubated for 16 to 18 hrs by broth microdilution assay. The format is functional.
For data set [8], the system named is Staphylococcus aureus. As to the kind of experiment: Antibacterial activity against methicillin-resistant Staphylococcus aureus NR100 incubated for 16 to 18 hrs by broth microdilution assay. The format is functional.
Data set [9] concerns Staphylococcus aureus. The data set is described as follows: Antibacterial activity against methicillin-resistant Staphylococcus aureus NR10192 incubated for 16 to 18 hrs by broth microdilution assay. The format is functional.
Data set [10] deals with Staphylococcus aureus. As to the kind of experiment: Antibacterial activity against methicillin-resistant Staphylococcus aureus NR119 incubated for 16 to 18 hrs by broth microdilution assay. The format is functional.
The test system of data set [11] is Staphylococcus aureus. The data set is described as follows: Antibacterial activity against methicillin-resistant Staphylococcus aureus NR10129 incubated for 16 to 18 hrs by broth microdilution assay. The format is functional.
Data set [12] concerns Staphylococcus aureus. The data set is described as follows: Antibacterial activity against methicillin-resistant Staphylococcus aureus NR10198 incubated for 16 to 18 hrs by broth microdilution assay. The format is functional.
Data set [13] relates to Staphylococcus aureus. As to the kind of experiment: Antibacterial activity against Staphylococcus aureus ATCC 29213 incubated for 16 to 18 hrs by broth microdilution assay. It counts as functional.
The subject of another data set is Pseudomonas aeruginosa. The data set is described as follows: Antibacterial activity against Pseudomonas aeruginosa ATCC 27853 incubated for 16 to 18 hrs by broth microdilution assay. It counts as functional.
Data set [14] concerns Staphylococcus aureus. As to the kind of experiment: Antibacterial activity against methicillin-susceptible Staphylococcus aureus ATCC 29213 incubated for 16 to 18 hrs by broth microdilution assay. The format is functional.
Data set [15] concerns Staphylococcus aureus. The data set is described as follows: Antibacterial activity against Staphylococcus aureus ATCC 29213 assessed as time required to increase 1 log10 CFU at MIC incubated for 1 hr followed by compound washout and measured at 1 hr intervals (reference value: 2 hrs). The format is functional.
The subject of data set [16] is Staphylococcus aureus. The data set is described as follows: Antibacterial activity against Staphylococcus aureus ATCC 29213 assessed as time required to increase 1 log10 CFU at 10 times MIC incubated for 1 hr followed by compound washout and measured at 1 hr intervals (reference value: 2 hrs). The format is functional.
The subject of data set [17] is Staphylococcus aureus. As to the kind of experiment: Antibacterial activity against Staphylococcus aureus ATCC 29213 assessed as post antibiotic effect time at MIC incubated for 1 hr followed by compound washout and measured at 1 hr intervals (reference value: 0 hrs). The format is functional.
For data set [18], the system named is Staphylococcus aureus. The data set is described as follows: Antibacterial activity against Staphylococcus aureus ATCC 29213 assessed as post antibiotic effect time at 10 times MIC incubated for 1 hr followed by compound washout and measured at 1 hr intervals (reference value: 0 hrs). The format is functional.
Data set [19] deals with Staphylococcus aureus. As to the kind of experiment: Antibiofilm activity against Staphylococcus aureus ATCC 29213 at 10 times MIC incubated 48 hrs by crystal violet staining based assay relative to control. The format is functional.
Another data set has as its system Acinetobacter baumannii. The data set is described as follows: Antibacterial activity against Acinetobacter baumannii BAA1605 incubated for 16 to 18 hrs by broth microdilution assay. The format is functional.
In the next data set the test system is Escherichia coli. The data set is described as follows: Antibacterial activity against Escherichia coli ATCC 25922 incubated for 16 to 18 hrs by broth microdilution assay. The format is functional.
In data set [20] the test system is Mycobacterium tuberculosis. As to the kind of experiment: Antitubercular activity against Mycobacterium tuberculosis H37Rv after 7 days by resazurin dye based assay. It counts as functional. The settings on record: 168 h.
A short description of data set [21]: Cytotoxicity against African green monkey Vero cells assessed as reduction in cell viability after 72 hrs by MTT assay. The format is cell-based. The settings on record: chlorocebus sabaeus.
Data set [22] in a line: Selectivity index, ratio of CC50 for African green monkey Vero cells to MIC for Staphylococcus aureus ATCC 29213. It counts as toxicity. The note with it: read-out: Selectivity Index.
For data set [23], the system named is Staphylococcus aureus. The data set is described as follows: Antimicrobial activity against Staphylococcus aureus ATCC 29213 infected in BALB/c mouse model of neutropenic thigh infection assessed reduction in bacterial levels in thigh at 25 mg/kg, ip administered 3 hrs post infection twice at interval of 3 hrs between injections and measured after 24 hrs. It counts as functional, organism-based.

Data set [24] is described as follows: Selectivity index, ratio of CC50 for African green monkey Vero cells to MIC for Mycobacterium tuberculosis H37Rv. The format is toxicity. The settings on record: read-out: Selectivity Index.

Converted amounts (≈) assume the structure as drawn. The source made the active and inactive calls. The rule behind the calls is not given here.

On to `C[C@H]1COc2c(N3CCN(C)CC3)c(F)cc3c(=O)c(C(=O)O)cn1c23.C[C@H]1COc2c(N3CCN(C)CC3)c(F)cc3c(=O)c(C(=O)O)cn1c23.O` [LEVOFLOXACIN], for which the MIC against Klebsiella pneumoniae was 64 µg/mL; in the data set on Staphylococcus aureus [1] it was 32 to 64 µg/mL; in the data set with Staphylococcus aureus [2], greater than 64 µg/mL; with Staphylococcus aureus [3] it was 32 µg/mL; against Staphylococcus aureus [4] it was 0.5 µg/mL; against Staphylococcus aureus [5], 16 to 32 µg/mL. Besides, the MIC in the data set on Staphylococcus aureus [6] is 32 µg/mL; in the data set with Staphylococcus aureus [7], 4 to 8 µg/mL; against Staphylococcus aureus [8], less than 0.5 µg/mL; with Staphylococcus aureus [9] it was 4 to 8 µg/mL; against Staphylococcus aureus [10], 16 µg/mL; in the data set with Staphylococcus aureus [11], 0.5 µg/mL. The MIC against Staphylococcus aureus [12] was 32 µg/mL; against Staphylococcus aureus [13] it was 0.125 to 0.25 µg/mL; against Pseudomonas aeruginosa it was 0.5 µg/mL; against Staphylococcus aureus [14], less than 0.5 µg/mL. Besides, the Time is 3 h with Staphylococcus aureus [15], 3 h in the data set on Staphylococcus aureus [16], 1 h with Staphylococcus aureus [17] and 1 h in the data set on Staphylococcus aureus [18]. For the same molecule, in the data set on Staphylococcus aureus [19], the Activity worked out at 30.6%.

As for `N#Cc1ccc(/C=C/c2nc3ncccc3c(=O)n2-c2ccc(S)cc2)cc1`, the MIC is greater than 64 µg/mL against Acinetobacter baumannii; greater than 64 µg/mL against Klebsiella pneumoniae; 2 µg/mL (≈ 5.23 µM) in the data set with Staphylococcus aureus [13]; greater than 64 µg/mL against Escherichia coli; greater than 64 µg/mL against Pseudomonas aeruginosa; greater than 64 µg/mL in [20]. Besides, the CC50 at 72 h in data set [21] is greater than 10 µg/mL. The selectivity ratio in [22] is greater than 5.

Turning to `C[C@@H](O)[C@H]1C(=O)N2C(C(=O)O)=C(S[C@@H]3CN[C@H](C(=O)N(C)C)C3)[C@H](C)[C@H]12` [MEROPENEM], the MIC against Staphylococcus aureus [1] was greater than 64 µg/mL; in the data set on Staphylococcus aureus [2], greater than 64 µg/mL; against Staphylococcus aureus [3] it was greater than 64 µg/mL; in the data set with Staphylococcus aureus [4], 0.5 µg/mL (≈ 1.3 µM); against Staphylococcus aureus [5], greater than 64 µg/mL; against Staphylococcus aureus [6], 32 µg/mL (≈ 83.4 µM). Further, the MIC in the data set with Staphylococcus aureus [7] was 16 to 32 µg/mL (≈ 41.7 to 83.4 µM); in the data set with Staphylococcus aureus [8], greater than 64 µg/mL; against Staphylococcus aureus [9] it was 4 to 8 µg/mL (≈ 10.4 to 20.9 µM); with Staphylococcus aureus [10], greater than 64 µg/mL; against Staphylococcus aureus [11] it was 16 µg/mL (≈ 41.7 µM); with Staphylococcus aureus [12], 32 µg/mL (≈ 83.4 µM). The figures for the MIC in the data set with Staphylococcus aureus [13] and in the data set with Staphylococcus aureus [14] were 0.25 µg/mL (≈ 0.652 µM) and less than 0.5 µg/mL, respectively.

In the case of `CN[C@H](CC(C)C)C(=O)N[C@H]1C(=O)N[C@@H](CC(N)=O)C(=O)N[C@H]2C(=O)N[C@H]3C(=O)N[C@H](C(=O)N[C@H](C(=O)O)c4cc(O)cc(O)c4-c4cc3ccc4O)[C@H](O)c3ccc(c(Cl)c3)Oc3cc2cc(c3O[C@@H]2O[C@H](CO)[C@@H](O)[C@H](O)[C@H]2O[C@H]2C[C@](C)(N)[C@H](O)[C@H](C)O2)Oc2ccc(cc2Cl)[C@H]1O` [VANCOMYCIN], the MIC with Staphylococcus aureus [1], against Staphylococcus aureus [2] and against Staphylococcus aureus [3] was greater than 64 µg/mL each time. The Time with Staphylococcus aureus [15] was 3 h; in the data set with Staphylococcus aureus [16], 4 h; with Staphylococcus aureus [17], 1 h; in the data set with Staphylococcus aureus [18], 2 h. Also, the Activity with Staphylococcus aureus [19] is 7.7%. Further, the result in the data set on Staphylococcus aureus [23] was Active.

As for `C#CCOc1cccc(-n2c(/C=C/c3ccc(C#N)cc3)nc3cccc(F)c3c2=O)c1`, the MIC with Acinetobacter baumannii is greater than 64 µg/mL; in the data set with Klebsiella pneumoniae it was greater than 64 µg/mL; in the data set with Staphylococcus aureus [13], 0.5 µg/mL (≈ 1.19 µM); against Escherichia coli, greater than 64 µg/mL; in the data set with Pseudomonas aeruginosa, greater than 64 µg/mL; in data set [20], 2 µg/mL (≈ 4.75 µM). Moreover, the CC50 at 72 h in data set [21] lay in the range of 5 to 10 µg/mL (≈ 11.9 to 23.7 µM). Also, the selectivity ratio in data set [22] is greater than 10; in data set [24] it was greater than 5.

The record behind these values is ChEMBL document CHEMBL4393707, “Synthesis and evaluation of new quinazolin-4(3H)-one derivatives as potent antibacterial agents against multidrug resistant Staphylococcus aureus and Mycobacterium tuberculosis” (Eur J Med Chem, 2019).
